Data reported in PMC5520492, “Inhibition of DNA2 nuclease as a therapeutic strategy targeting replication stress in cancer cells” (Oncogenesis, 2017).
Structures can show the parent of a compound that is named as a salt. Where two headings read alike, the source gives them in different places.

Tests used:
yDna2 = target: T1, yDna2 (Saccharomyces cerevisiae, UniProt P38859); assay: High-throughput fluorescence nuclease assay with yDna2 (triply labeled (dT)30 ssDNA); type: biochemical, yeast; conditions: for inhibition at 33.33 µM: read-out: % Inhibition yDna2
T1 construct: made in house
T1 sequence (P38859 whole entry): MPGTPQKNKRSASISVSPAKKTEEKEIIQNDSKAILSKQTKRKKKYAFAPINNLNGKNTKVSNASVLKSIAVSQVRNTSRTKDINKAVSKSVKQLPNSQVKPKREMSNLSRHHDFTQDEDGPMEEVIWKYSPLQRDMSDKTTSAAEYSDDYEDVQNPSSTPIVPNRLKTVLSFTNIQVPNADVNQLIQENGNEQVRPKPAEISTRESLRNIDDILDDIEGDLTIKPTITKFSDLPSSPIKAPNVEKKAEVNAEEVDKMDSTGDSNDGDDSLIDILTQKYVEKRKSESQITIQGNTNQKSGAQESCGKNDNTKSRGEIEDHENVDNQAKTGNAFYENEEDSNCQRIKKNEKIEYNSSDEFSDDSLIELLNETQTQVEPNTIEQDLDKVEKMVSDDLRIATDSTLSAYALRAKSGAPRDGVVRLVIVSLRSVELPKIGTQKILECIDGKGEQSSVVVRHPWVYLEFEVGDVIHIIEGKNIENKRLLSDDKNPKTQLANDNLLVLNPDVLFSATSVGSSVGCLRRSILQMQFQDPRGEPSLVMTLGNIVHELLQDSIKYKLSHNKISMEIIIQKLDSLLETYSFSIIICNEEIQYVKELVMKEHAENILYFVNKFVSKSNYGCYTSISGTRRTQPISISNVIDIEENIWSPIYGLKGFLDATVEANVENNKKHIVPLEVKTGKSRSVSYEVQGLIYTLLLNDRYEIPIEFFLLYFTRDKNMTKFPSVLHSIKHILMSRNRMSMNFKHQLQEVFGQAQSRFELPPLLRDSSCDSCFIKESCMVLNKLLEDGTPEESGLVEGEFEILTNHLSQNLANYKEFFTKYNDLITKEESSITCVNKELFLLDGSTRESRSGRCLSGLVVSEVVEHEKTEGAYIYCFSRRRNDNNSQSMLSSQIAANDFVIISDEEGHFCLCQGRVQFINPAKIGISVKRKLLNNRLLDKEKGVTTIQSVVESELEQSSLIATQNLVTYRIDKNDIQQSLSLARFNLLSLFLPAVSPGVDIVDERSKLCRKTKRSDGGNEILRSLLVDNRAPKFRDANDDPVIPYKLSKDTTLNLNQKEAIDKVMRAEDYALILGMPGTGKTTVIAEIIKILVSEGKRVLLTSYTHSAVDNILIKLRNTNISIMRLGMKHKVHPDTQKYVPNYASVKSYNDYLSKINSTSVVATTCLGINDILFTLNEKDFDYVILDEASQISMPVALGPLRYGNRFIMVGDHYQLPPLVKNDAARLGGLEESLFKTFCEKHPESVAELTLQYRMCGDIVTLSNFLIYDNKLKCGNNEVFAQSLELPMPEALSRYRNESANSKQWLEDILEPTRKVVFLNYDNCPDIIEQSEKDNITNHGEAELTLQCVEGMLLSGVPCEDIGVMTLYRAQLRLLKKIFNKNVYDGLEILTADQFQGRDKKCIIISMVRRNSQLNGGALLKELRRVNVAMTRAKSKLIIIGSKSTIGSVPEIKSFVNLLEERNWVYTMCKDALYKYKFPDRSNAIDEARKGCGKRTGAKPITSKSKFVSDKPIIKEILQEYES
Procedure: (§1) The screen entailed the use of oligonucleotide (dT)30 having a reporter fluorescent moiety, 6-FAM on the 5′ end, and the dark quenching group, Iowa Black FQ, on the 3′ end. In addition, a second dark quencher ZEN was placed between the 9th and 10th base (Figure 2a). The fluorescence emitted by 6-FAM is quenched by FRET, but it increases when DNA is degraded by Dna2. […] The inhibitory activity of the compounds was determined as a reduction in fluorescent signal compared with the dimethylsulfoxide (DMSO) only control. […] We screened ~50 000 chemical compounds from six different libraries (Supplementary Table S1) to identify chemical inhibitors of the Dna2 nuclease activity. […] The DNA2 nuclease domain is well conserved among eukaryotes, and therefore we reasoned that inhibitors of yDna2 will likely also work with the human counterpart.
(§2) Initial screen, it was performed with yDna2.[22] Then, the top candidate compounds were tested on hDNA2. Identical reaction conditions were used for assaying the nuclease activity of yDna2 and hDNA2. […] The reaction buffer was 20 mM HEPES/NaOH, pH 7.5, 60 mM KCl, 1 mM DTT, 100 μg/ml bovine serum albumin and 0.05% Triton X-100. The nuclease assay was initiated by adding MgCl2 (3 mM final concentration). T5 nuclease was assayed in the buffer (50 mM potassium acetate, pH 7.9, 20 mM Tris-acetate, 10 mM magnesium acetate and 1 mM DTT) provided by the vendor (NEB, Ipswich, MA, USA). The concentration of the fluorogenic substrate was 0.1 μM. The optimal amount of yDna2, hDNA2 and T5 nuclease was determined by utilizing the Kaleidagraph software (Reading, PA, USA) to fit the data according to Michaelis Menton Kinetics (V=V0+Vmax*x/(Km+x)). […] The Z’ value was calculated as previously described.[50] Cell proliferation was determined using 4,6-diamidino-2-phenylindole staining followed by high-throughput microscopy in a 384-well plate setup. In brief, cells were fixed with formaldehyde, washed and stained with 4,6-diamidino-2-phenylindole and the number of nuclei in each well counted by automated microscopy. The data were analyzed as described.[51]

T5 nuclease = target: T2, T5 nuclease (Escherichia phage T5, UniProt P06229); assay: T5 nuclease counter-screen (fluorescence nuclease assay); type: biochemical; set-up: concentration or dose not given beside the values; conditions: re-screening against T5 nuclease
T2 construct: purchased NEB
T2 sequence (P06229 whole entry): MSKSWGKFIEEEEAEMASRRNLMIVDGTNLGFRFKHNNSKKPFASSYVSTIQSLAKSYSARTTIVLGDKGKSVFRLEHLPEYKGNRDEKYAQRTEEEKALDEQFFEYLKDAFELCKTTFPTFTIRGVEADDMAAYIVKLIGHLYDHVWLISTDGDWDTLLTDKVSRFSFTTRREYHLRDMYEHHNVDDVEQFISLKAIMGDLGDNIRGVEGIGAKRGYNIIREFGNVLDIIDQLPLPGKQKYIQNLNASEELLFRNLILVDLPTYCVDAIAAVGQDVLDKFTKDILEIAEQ
Procedure: as §1, §2

U2OS cells = assay: Cell-based viability/proliferation screen, DAPI staining and automated microscopy; set-up: species or system human; conditions: Homo sapiens, 10 pM to 10 μM, DAPI staining, read-out: IC50 from Screening Cell Based
Procedure: The biological effectiveness of the 39 compounds selected by re-screening was determined by measuring their half maximal inhibitory concentration (IC50) biochemically and in a cell-based system using the 384-well platform (Supplementary Table S2). […] We conducted the viability assay in duplicate on three separate occasions using a concentration range of 10 pM to 10 μM for each compound. Cell proliferation was determined using 4,6-diamidino-2-phenylindole staining and microscopy.
In addition, a second dark quencher ZEN (N,N-diethyl-4-(4-nitronaphthalen-1-ylazo)-phenylamine, absorption max.=532 nm) is placed between 9th and 10th base (Figure 2a). Initial screen, it was performed with yDna2.[22] Then, the top candidate compounds were tested on hDNA2. Identical reaction conditions were used for assaying the nuclease activity of yDna2 and hDNA2. […] The reaction buffer was 20 mM HEPES/NaOH, pH 7.5, 60 mM KCl, 1 mM DTT, 100 μg/ml bovine serum albumin and 0.05% Triton X-100. The nuclease assay was initiated by adding MgCl2 (3 mM final concentration). T5 nuclease was assayed in the buffer (50 mM potassium acetate, pH 7.9, 20 mM Tris-acetate, 10 mM magnesium acetate and 1 mM DTT) provided by the vendor (NEB, Ipswich, MA, USA). The concentration of the fluorogenic substrate was 0.1 μM. The optimal amount of yDna2, hDNA2 and T5 nuclease was determined by utilizing the Kaleidagraph software (Reading, PA, USA) to fit the data according to Michaelis Menton Kinetics (V=V0+Vmax*x/(Km+x)). […] All the compounds were dissolved in DMSO and DMSO alone was used as control; the final concentration of DMSO was at 3.33% for protein-based assay and 0.1% for cell-based assay. The Z’ value was calculated as previously described.[50] Cell proliferation was determined using 4,6-diamidino-2-phenylindole staining followed by high-throughput microscopy in a 384-well plate setup. In brief, cells were fixed with formaldehyde, washed and stained with 4,6-diamidino-2-phenylindole and the number of nuclei in each well counted by automated microscopy. The data were analyzed as described.[51]

[1] = screen at fixed inhibitor concentration (33.33 μM), 0.09 nM Dna2

| Molecule | % Inhibition T5 nuclease (T5 nuclease) | % Inhibition yDna2 (yDna2; [1]) | other results |
| --- | --- | --- | --- |
| CN1CCN(c2ccc3nc(-c4c(N)c5c(F)cccc5[nH]c4=O)[nH]c3c2)CC1 [(Dovitinib) CHIR258, Dovitinib, reference compound] | 60.2% | – | inhibition at 33.33 µM (yDna2; [1]): 54% |
| CCCCC(CC)CNC(=N)NC(=N)NCCCCCCNC(=N)NC(=N)NCC(CC)CCCC (stereo not drawn) [Alexidine dihydrochloride, reference compound] | 100% | – | inhibition at 33.33 µM (yDna2; [1]): 63.5% |
| CN(C)C/C=C/C(=O)Nc1cc2c(Nc3ccc(F)c(Cl)c3)ncnc2cc1O[C@H]1CCOC1 [BIBW2992, reference compound] | – | – | IC50 (yDna2; compounds that inhibit yDna2 but not T5 nuclease, 384-well platform, read-out: IC50 from Screening In Vitro): 7.2 µM; IC50 (U2OS cells): 1200 nM |
| COc1cc(-c2ccc(N=Nc3ccc4c(S(=O)(=O)[O-])cc(S(=O)(=O)[O-])c(N)c4c3O)c(OC)c2)ccc1N=Nc1ccc2c(S(=O)(=O)[O-])cc(S(=O)(=O)[O-])c(N)c2c1O.[Na+].[Na+].[Na+].[Na+] [Chicago Sky blue 6B, reference compound] | 100% | 69% | – |
| COc1ccc2c(C)nc(NC3=NC(C)(C)CC(C)=N3)nc2c1 [Compound 5309857] | 77.3% | 59.9% | – |
| COc1cccc2c1C(=O)c1c(O)c3c(c(O)c1C2=O)C[C@@](O)(C(C)=O)C[C@@H]3O[C@H]1C[C@H](N)[C@H](O)[C@H](C)O1 [Daunorubicin hydrochloride, reference compound] | 98.1% | – | inhibition at 33.33 µM (yDna2): 100% |
| COc1cccc2c1C(=O)c1c(O)c3c(c(O)c1C2=O)C[C@@](O)(C(=O)CO)C[C@@H]3O[C@H]1C[C@H](N)[C@H](O)[C@H](C)O1 [Doxorubicin hydrochloride, reference compound] | 100% | – | inhibition at 33.33 µM (yDna2; [1]): 100% |
| O=C1c2c(O)ccc(O)c2C(=O)c2c(NCCNCCO)ccc(NCCNCCO)c21 [Mitoxantrone dihydrochloride, reference compound] | 100% | – | inhibition at 33.33 µM (yDna2; [1]): 100% |
| COc1ccc2nc(C)cc(NCCCCCCCCCNc3cc(C)nc4ccc(OC)cc34)c2c1 [NSC10010] | 93.7% | 90.3% | – |
| CCN(CC)CCCC(C)Nc1nc(C)cc(Nc2ccc3nc(C)cc(N)c3c2)n1 (stereo not drawn) [NSC23766, reference compound] | 94.7% | 100% | – |
| Cc1cc(N)c2cc(NC(=O)/C=C/c3ccccc3Cl)ccc2n1 [NSC33353] | 100% | 100% | – |
| Cc1cc2nc3ccc(N(C)C)cc3[s+]c2cc1N [NSC36758] | 83.9% | – | inhibition at 33.33 µM (yDna2; [1]): 100% |
| O=C(Nc1ccc(C2=NCCN2)cc1)c1ccc(C(=O)Nc2ccc(C3=NCCN3)cc2)c(Cl)c1 [NSC60339] | 100% | – | inhibition at 33.33 µM (yDna2): 100% |
| O=C(Nc1ccc(C2=NCCN2)cc1)c1ccc(Cl)c(C(=O)Nc2ccc(C3=NCCN3)cc2)c1 [NSC67436] | 100% | 100% | – |
| Cc1cc2c(c3oc(C4(C)OC4C4OC4C)cc(=O)c13)C(=O)c1c(O)c(C3CC(C)(N(C)C)C(O)C(C)O3)cc(C3CC(N(C)C)C(O)C(C)O3)c1C2=O (stereo not drawn) [NSC70929] | 100% | 100% | – |
| COc1cccc2c1C(=O)c1c(O)c3c(c(O)c1C2=O)CC(O)(/C(C)=N/O)CC3OC1CC(N)C(O)C(C)O1 (stereo not drawn) [NSC143491] | 97.9% | 100% | – |
| O=C(Nc1ccc(Nc2ccncc2)cc1)c1ccc(Nc2ccnc3ccc([N+](=O)[O-])cc23)cc1 [NSC146771] | 100% | 76.5% | – |

| Molecule | % Inhibition T5 nuclease (T5 nuclease) | % Inhibition yDna2 (yDna2; [1]) | other results |
| --- | --- | --- | --- |
| Cc1cc(N)c2ccccc2[n+]1CCCCCCCCCC[n+]1c(C)cc(N)c2ccccc21 [NSC166454] | 88.9% | – | inhibition at 33.33 µM (yDna2; [1]): 55.4% |
| NC(N)=NCCCS(=O)(=O)Nc1ccc(Nc2c3ccccc3nc3cc([N+](=O)[O-])ccc23)cc1 [NSC177365] | 100% | 83.3% | – |
| c1ccc2c(NCCCCCCCCNc3c4ccccc4nc4ccccc34)c3ccccc3nc2c1 [NSC219734] | 100% | 85% | – |
| Cn1ccc(=Nc2ccc(NC(=O)c3ccc(N=c4ccn(C)c5ccc([N+](=O)[O-])cc45)cc3)cc2)cc1 [NSC260594] | 100% | 94.8% | – |
| COc1ccc2c(NCCCCCCNc3c4ccccc4nc4cc(OC)ccc34)c3ccccc3nc2c1 [NSC260610] | 100% | – | inhibition at 33.33 µM (yDna2; [1]): 100% |
| Cc1cc(NCCCCCCCNc2cc(C)nc3cc(N)ccc23)c2ccc(N)cc2n1 [NSC273829] | 56.5% | – | inhibition at 33.33 µM (yDna2; [1]): 74.4% |
| Nc1ccc(Cn2ccc3c4c(N)nc(N)nc4ccc32)cc1 [NSC309401] | 100% | 100% | – |
| CC(=O)[O-].Cc1c2cc[n+](CCN3CCCCC3)cc2c(C)c2c1[nH]c1ccc(O)cc12 [NSC311153] | 100% | 100% | – |
| CCN(CC)Cc1cc2[nH]c3c4ccc(Cl)cc4ncc3c2cc1OC [NSC317605] | 99.2% | 100% | – |
| CO[C@H]1C[C@@H]2\C=C(C)/C=C/C=C\C(=O)N[C@H](c3ccccc3)C/C=C/CC[C@H](O)CC(=O)C2=C1O [NSC343256] | 72% | 71% | – |
| ClN=C1C=CC=CC1=NCl [NSC344494] | 97.9% | 51.4% | – |
| Cl.O=C1c2cccc(NCCCNCCO)c2C(=O)c2cccc(NCCCNCCO)c21 [NSC363998] | 74.5% | 99% | – |
| [Mo] [NSC622124] | 96.1% | 93.4% | – |
| CC[N+](C)(CC)CCC[n+]1c(-c2ccccc2)c2cc(N)ccc2c2ccc(N)cc21.[I-].[I-] [Propidium Iodide, reference compound] | 100% | 100% | – |
| CCN(CC)CCCC(C)Nc1c2ccc(Cl)cc2nc2ccc(OC)cc12 (stereo not drawn) [Quinacrine dihydrochloride, reference compound] | 55.4% | – | inhibition at 33.33 µM (yDna2; [1]): 67.8% |
| Deqalinium dichloride [reference compound] | 100% | 100% | – |
